Experimental data reported in ChEMBL document CHEMBL5550173, “Design, synthesis and biological evaluation of indoline-maleimide conjugates as potential antitumor agents for the treatment of colorectal cancer” (Bioorg Med Chem, 2024).

How the values were obtained:
RKO [1] = assay: Cytotoxicity against human RKO cells at 5 uM incubated for 72 hrs by MTS assay; format: functional
HCT-116 [2] = assay: Cytotoxicity against human HCT-116 cells at 5 uM incubated for 72 hrs by MTS assay; format: functional
HT-29 [3] = assay: Cytotoxicity against human HT-29 cells at 5 uM incubated for 72 hrs by MTS assay; format: functional
HCT-116 [4] = assay: Cytotoxicity against human HCT-116 cells incubated for 72 hrs by MTS assay; format: functional, cell-based; conditions: HCT-116, 72 h
RKO [5] = assay: Cytotoxicity against human RKO cells incubated for 72 hrs by MTS assay; format: functional, cell-based
HT-29 [6] = assay: Cytotoxicity against human HT-29 cells incubated for 72 hrs by MTS assay; format: functional, cell-based; conditions: HT-29, 72 h
[7] = Cytotoxicity against human NCM460 cells incubated for 72 hrs by MTS assay; format: toxicity, cell-based

SMILES	Activity (RKO [1]) [%]	Activity (HCT-116 [2]) [%]	Activity (HT-29 [3]) [%]	other results
CC(C)(C)C(=O)N1CCc2cccc(C3=CC(=O)N(Cc4ccccc4)C3=O)c21	39.93			
CN1C(=O)C=C(c2ccc(Cl)c3c2N(C(=O)C(C)(C)C)CC3)C1=O	57.87			
COc1ccc2c(c1C1=CC(=O)N(C)C1=O)N(C(=O)C(C)(C)C)CC2	21.09			
CC(C)(C)C(=O)N1CCc2cccc(C3=CC(=O)N(c4ccccc4)C3=O)c21	10.63			
CN1C(=O)C=C(c2cccc3c2N(C(=O)C2CC2)CC3)C1=O	88.42	76.22	43.87	IC50 (HCT-116 [4]): 3.45 µM; IC50 (RKO [5]): 2120 nM; IC50 (HT-29 [6]): 5.11 µM
CN1C(=O)C=C(c2cccc3c2N(C(=O)C2CCCCC2)CC3)C1=O	65.05			
CC(=O)N1CCc2cccc(C3=CC(=O)N(C)C3=O)c21	48.13		6.8	
CN1C(=O)C=C(c2cccc3c2N(C(=O)N2CCCCC2)CC3)C1=O	17.85			
CN1C(=O)C=C(c2cccc3c2N(C(=O)c2ccccc2)CC3)C1=O	26.15		4.95	
CN1C(=O)C=C(c2cccc3c2N(C(=O)C(C)(C)C)CC3)C1=O	79.24	76.85	49.95	IC50 (HCT-116 [4]): 3.96 µM; IC50 (RKO [5]): 2310 nM; IC50 (HT-29 [6]): 5.52 µM
CN1C(=O)C=C(c2cccc3c2N(C(=O)N2CCOCC2)CC3)C1=O	22.03		6.82	
CN1C(=O)C=CC1=O	33.16	51.17	7.09	
CC(C)N1C(=O)C=C(c2cccc3c2N(C(=O)C(C)(C)C)CC3)C1=O	19.15			
CCc1ccc(N2C(=O)C=C(c3cccc4c3N(C(=O)C(C)(C)C)CC4)C2=O)cc1	7.21	10.96	7.09	
CN(C)C(=O)N1CCc2cccc(C3=CC(=O)N(C)C3=O)c21	4.75		5.08	
Cc1cc2c(c(C3=CC(=O)N(C)C3=O)c1)N(C(=O)C(C)(C)C)CC2	17.49			
CC(=O)c1ccc(N2C(=O)C=C(c3cccc4c3N(C(=O)C(C)(C)C)CC4)C2=O)cc1			4.69	
COc1ccc(C2=CC(=O)N(C)C2=O)c2c1CCN2C(=O)C(C)(C)C	16.41		4.04	

SMILES	Activity (RKO [1]) [%]	Activity (HCT-116 [2]) [%]	Activity (HT-29 [3]) [%]	other results
CN1C(=O)C=C(c2cc(C#N)cc3c2N(C(=O)C(C)(C)C)CC3)C1=O	50.21		4.68	
O=c1[nH]cc(F)c(=O)[nH]1 [FLUOROURACIL]	52.32	37.53	29.52	IC50 (HCT-116 [4]): 8.03 µM; IC50 (RKO [5]): 3960 nM; IC50 at 72 h [7]: 7.95 µM
C=C(C)C(=O)n1ccc2cccc(C3=CC(=O)N(C)C3=O)c21	58.25	32.89	10.28	
COC(=O)CCN1C(=O)C=C(c2cccc3c2N(C(=O)C(C)(C)C)CC3)C1=O	59.55	21.18		
C=CC(=O)N1CCc2cccc(C3=CC(=O)N(C)C3=O)c21	78.18	23.11	2.14	
CN1C(=O)C=C(c2cc(F)cc3c2N(C(=O)C(C)(C)C)CC3)C1=O	78.58	6.51	18.8	
CN1C(=O)C=C(c2cccc3c2N(C(=O)c2cc4ccccc4o2)CC3)C1=O	46.33	11.36		
CC1CN(C(=O)C(C)(C)C)c2c(C3=CC(=O)N(C)C3=O)cccc21 (stereo not drawn)	56.28		6.02	
CN1C(=O)C=C(c2cc(Cl)cc3c2N(C(=O)C(C)(C)C)CC3)C1=O	15.17			
CN1C(=O)C=C(c2cc(I)cc3c2N(C(=O)C(C)(C)C)CC3)C1=O	57.09			
CCC(=O)N1CCc2cccc(C3=CC(=O)N(C)C3=O)c21	80.31	4.19		
CC(C)(C)C(=O)N1CCc2cccc(C3=CC(=O)NC3=O)c21	10.96			
CC1Cc2cccc(C3=CC(=O)N(C)C3=O)c2N1C(=O)C(C)(C)C (stereo not drawn)	61.74		2.07	
CN1C(=O)C=C(c2c(F)ccc3c2N(C(=O)C(C)(C)C)CC3)C1=O	32.98			
CC(C)(C)C(=O)N1CCc2cccc(C3=CC(=O)N(C4CCCCC4)C3=O)c21	38.47			
C=C(C)C(=O)N1CCc2ccccc21			4.7	
CCN1C(=O)C=C(c2cccc3c2N(C(=O)C(C)(C)C)CC3)C1=O	80.91	59.58	16.99	
